# Test results reported in paper PMC5218480 (PLoS ONE, 2017).
# System: MV-4-11 cells
# Assay: Gene expression microarray analysis (Affymetrix PrimeView) and GSEA
# Format: cell-based, human
# Design: RFU PODN (11730768_x_at) / Fold change /veh PODN (11730768_x_at) / RFU LINC00158 (11744669_a_at) / Fold change /veh LINC00158 (11744669_a_at) / RFU DUSP10 (11751237_a_at) / Fold change /veh DUSP10 (11751237_a_at) / RFU ID3 (11757404_x_at) / Fold change /veh ID3 (11757404_x_at) / RFU PLEKHG5 (11737974_s_at) / Fold change /veh PLEKHG5 (11737974_s_at) / RFU LRRC4B (11730491_at) / Fold change /veh LRRC4B (11730491_at) / RFU GIMAP4 (11747438_a_at) / Fold change /veh GIMAP4 (11747438_a_at) / RFU KRT8 (11758183_x_at) / Fold change /veh KRT8 (11758183_x_at) / RFU CNN1 (11734310_a_at) / Fold change /veh CNN1 (11734310_a_at) / RFU VPS37D (11726825_at) / Fold change /veh VPS37D (11726825_at) / RFU C10orf10 (11716522_x_at) / Fold change /veh C10orf10 (11716522_x_at) / RFU KIR2DL2 /// KIR2DL4 /// KIR2DL5A /// KIR2DL5B /// KIR2DS1 /// KIR2DS2 /// KIR2DS3 /// KIR2DS4 /// KIR3DL3 /// KIR3DL3 /// KIR3DS1 (11738374_at) / Fold change /veh KIR2DL2 /// KIR2DL4 /// KIR2DL5A /// KIR2DL5B /// KIR2DS1 /// KIR2DS2 /// KIR2DS3 /// KIR2DS4 /// KIR3DL3 /// KIR3DL3 /// KIR3DS1 (11738374_at) / RFU C1QL1 (11718748_at) / Fold change /veh C1QL1 (11718748_at) / RFU TMPRSS4 (11747572_a_at) / Fold change /veh TMPRSS4 (11747572_a_at) / RFU HAMP (11756126_x_at) / Fold change /veh HAMP (11756126_x_at) / RFU RNFT2 (11725882_a_at) / Fold change /veh RNFT2 (11725882_a_at) / RFU NR4A2 (11747474_a_at) / Fold change /veh NR4A2 (11747474_a_at) / RFU ABCC12 (11746883_a_at) / Fold change /veh ABCC12 (11746883_a_at) / RFU TMEM136 (11760407_x_at) / Fold change /veh TMEM136 (11760407_x_at) / RFU CLDN22 /// WWC2 (11732394_at) / Fold change /veh CLDN22 /// WWC2 (11732394_at) / RFU HLA-DPB1 (11760878_x_at) / Fold change /veh HLA-DPB1 (11760878_x_at) / RFU SPINT1 (11716480_a_at) / Fold change /veh SPINT1 (11716480_a_at) / RFU GAP43 (11754022_s_at) / Fold change /veh GAP43 (11754022_s_at) / RFU A4GNT (11735810_at) / Fold change /veh A4GNT (11735810_at) / RFU PRB3 (11715151_x_at) / Fold change /veh PRB3 (11715151_x_at) / RFU TUBB4B (11761932_at) / Fold change /veh TUBB4B (11761932_at) / RFU CAPN14 (11732068_a_at) / Fold change /veh CAPN14 (11732068_a_at) / RFU TMCC2 (11721928_a_at) / Fold change /veh TMCC2 (11721928_a_at) / RFU IRGQ (11745062_a_at) / Fold change /veh IRGQ (11745062_a_at) / RFU FAM174B (11720279_a_at) / Fold change /veh FAM174B (11720279_a_at) / RFU TMPRSS4 (11748680_a_at) / Fold change /veh TMPRSS4 (11748680_a_at) / RFU FAM212B (11763350_a_at) / Fold change /veh FAM212B (11763350_a_at) / RFU PLEKHG5 (11743358_a_at) / Fold change /veh PLEKHG5 (11743358_a_at) / RFU ZSCAN30 (11745921_a_at) / Fold change /veh ZSCAN30 (11745921_a_at) / RFU CMKLR1 (11741424_a_at) / Fold change /veh CMKLR1 (11741424_a_at) / RFU LOC101060620 /// MAPK8IP1 (11723275_at) / Fold change /veh LOC101060620 /// MAPK8IP1 (11723275_at) / RFU SPTSSB (11747773_x_at) / Fold change /veh SPTSSB (11747773_x_at) / RFU PRSS12 (11739890_at) / Fold change /veh PRSS12 (11739890_at) / RFU BIN1 (11741810_x_at) / Fold change /veh BIN1 (11741810_x_at) / RFU WNT11 (11732464_a_at) / Fold change /veh WNT11 (11732464_a_at) / RFU C10orf10 (11716521_a_at) / Fold change /veh C10orf10 (11716521_a_at) / RFU C5orf56 (11738089_at) / Fold change /veh C5orf56 (11738089_at) / RFU CYB561 (11721691_x_at) / Fold change /veh CYB561 (11721691_x_at) / RFU ANKRD19P (11752326_a_at) / Fold change /veh ANKRD19P (11752326_a_at) / RFU OR2T12 /// OR2T33 /// OR2T8 (11738714_s_at) / Fold change /veh OR2T12 /// OR2T33 /// OR2T8 (11738714_s_at) / RFU VCAN (11748164_a_at) / Fold change /veh VCAN (11748164_a_at) / RFU JSRP1 (11732532_at) / Fold change /veh JSRP1 (11732532_at) / RFU KRTAP10-11 (11738290_x_at) / Fold change /veh KRTAP10-11 (11738290_x_at) / RFU MYO3A (11730013_a_at) / Fold change /veh MYO3A (11730013_a_at) / RFU EBF3 (11725865_a_at) / Fold change /veh EBF3 (11725865_a_at) / RFU CAMK2N1 (11719241_x_at) / Fold change /veh CAMK2N1 (11719241_x_at) / RFU C5orf56 (11738088_a_at) / Fold change /veh C5orf56 (11738088_a_at) / RFU OLFML3 (11715873_a_at) / Fold change /veh OLFML3 (11715873_a_at) / RFU LOC100653217 /// NTM (11731650_a_at) / Fold change /veh LOC100653217 /// NTM (11731650_a_at) / RFU MAPK11 (11762145_a_at) / Fold change /veh MAPK11 (11762145_a_at) / RFU FIZ1 (11724087_x_at) / Fold change /veh FIZ1 (11724087_x_at) / RFU OASL (11726364_x_at) / Fold change /veh OASL (11726364_x_at) / RFU SOX15 (11748057_x_at) / Fold change /veh SOX15 (11748057_x_at) / RFU CD79A (11719716_a_at) / Fold change /veh CD79A (11719716_a_at) / RFU HIST1H1D (11736915_at) / Fold change /veh HIST1H1D (11736915_at) / RFU CASKIN2 (11723855_a_at) / Fold change /veh CASKIN2 (11723855_a_at) / RFU LOC730098 (11760151_x_at) / Fold change /veh LOC730098 (11760151_x_at) / RFU OR4N2 (11742367_at) / Fold change /veh OR4N2 (11742367_at) / RFU PRRT2 (11749266_a_at) / Fold change /veh PRRT2 (11749266_a_at) / RFU SNX32 (11753110_a_at) / Fold change /veh SNX32 (11753110_a_at) / RFU CDHR5 (11726645_a_at) / Fold change /veh CDHR5 (11726645_a_at) / RFU RCAN1 (11760418_a_at) / Fold change /veh RCAN1 (11760418_a_at) / RFU FAM167A (11723789_a_at) / Fold change /veh FAM167A (11723789_a_at) / RFU FAM26E (11764081_at) / Fold change /veh FAM26E (11764081_at) / RFU ISYNA1 (11749810_s_at) / Fold change /veh ISYNA1 (11749810_s_at) / RFU ACY1 (11761880_at) / Fold change /veh ACY1 (11761880_at) / RFU 11764098_at / Fold change /veh 11764098_at / RFU SAMD14 (11745864_x_at) / Fold change /veh SAMD14 (11745864_x_at) / RFU NPB (11741838_a_at) / Fold change /veh NPB (11741838_a_at) / RFU TMPRSS6 (11731388_a_at) / Fold change /veh TMPRSS6 (11731388_a_at) / RFU KRTAP10-2 (11738614_at) / Fold change /veh KRTAP10-2 (11738614_at) / RFU ARHGAP8 /// PRR5-ARHGAP8 (11727945_x_at) / Fold change /veh ARHGAP8 /// PRR5-ARHGAP8 (11727945_x_at) / RFU KRTAP5-7 /// NADSYN1 (11734609_at) / Fold change /veh KRTAP5-7 /// NADSYN1 (11734609_at) / RFU RASL12 (11751679_a_at) / Fold change /veh RASL12 (11751679_a_at) / RFU CDKN2B (11736163_a_at) / Fold change /veh CDKN2B (11736163_a_at) / RFU PRF1 (11729649_at) / Fold change /veh PRF1 (11729649_at) / RFU, ZNF638 /// ZNF638-IT1 / Fold change vs veh, ZNF638 /// ZNF638-IT1 / RFU, PANK3 / Fold change vs veh, PANK3 / RFU, SH3YL1 / Fold change vs veh, SH3YL1 / RFU, ZEB2 / Fold change vs veh, ZEB2 / RFU, NRIP1 / Fold change vs veh, NRIP1 / RFU, PTTG1IP / Fold change vs veh, PTTG1IP / RFU, CAPN2 / Fold change vs veh, CAPN2 / RFU, MED14 / Fold change vs veh, MED14 / RFU, SNORA58 / Fold change vs veh, SNORA58 / RFU, C1orf63 / Fold change vs veh, C1orf63 / RFU, LRRFIP1 / Fold change vs veh, LRRFIP1 / RFU, NDUFAF7 / Fold change vs veh, NDUFAF7 / RFU, SLC12A2 / Fold change vs veh, SLC12A2 / RFU, IBTK / Fold change vs veh, IBTK / RFU, ESF1 / Fold change vs veh, ESF1 / Fold change vs veh, TMEM50B / RFU, TAOK1 / Fold change vs veh, TAOK1 / RFU, ACBD3 / Fold change vs veh, ACBD3 / RFU, TMA16 / Fold change vs veh, TMA16 / RFU, RWDD3 / Fold change vs veh, RWDD3 / RFU, BCAT1 / Fold change vs veh, BCAT1 / RFU, EDEM3 / Fold change vs veh, EDEM3 / RFU, TMEM33 / Fold change vs veh, TMEM33 / RFU, WDR75 / Fold change vs veh, WDR75 / RFU, AHCTF1 / Fold change vs veh, AHCTF1 / RFU, TFRC / Fold change vs veh, TFRC / RFU, ZDHHC17 / Fold change vs veh, ZDHHC17 / RFU, NOM1 / Fold change vs veh, NOM1 / RFU, ARL8B / Fold change vs veh, ARL8B / RFU, ZBTB11 / Fold change vs veh, ZBTB11 / RFU, TAMM41 / Fold change vs veh, TAMM41 / RFU, KIAA1704 /// LOC100996395 / Fold change vs veh, KIAA1704 /// LOC100996395 / RFU, ING1 / Fold change vs veh, ING1 / RFU, TRMT61B / Fold change vs veh, TRMT61B / RFU, FUBP3 / Fold change vs veh, FUBP3 / RFU, TP53 / Fold change vs veh, TP53 / RFU, TNKS2 / Fold change vs veh, TNKS2 / RFU, ZFP14 / Fold change vs veh, ZFP14 / RFU, ACTR2 / Fold change vs veh, ACTR2 / RFU, PPP3R1 / Fold change vs veh, PPP3R1 / RFU, PIK3R1 / Fold change vs veh, PIK3R1 / RFU, HNRNPA1 / Fold change vs veh, HNRNPA1 / RFU, RNF170 / Fold change vs veh, RNF170 / RFU, ZNF28 / Fold change vs veh, ZNF28 / RFU, RNGTT / Fold change vs veh, RNGTT / RFU, OGT / Fold change vs veh, OGT / RFU, BRD1 / Fold change vs veh, BRD1 / RFU, MARS / Fold change vs veh, MARS / RFU, ZNF655 / Fold change vs veh, ZNF655 / RFU, FAHD1 / Fold change vs veh, FAHD1 / RFU, BDP1 / Fold change vs veh, BDP1 / RFU, LRRCC1 / Fold change vs veh, LRRCC1 / RFU, ARID1A / Fold change vs veh, ARID1A / RFU, ZNF146 / Fold change vs veh, ZNF146 / RFU, ZNF330 / Fold change vs veh, ZNF330 / RFU, GPN3 / Fold change vs veh, GPN3 / RFU, C9orf123 / Fold change vs veh, C9orf123 / RFU, N4BP2L2 / Fold change vs veh, N4BP2L2 / RFU, ARFIP1 / Fold change vs veh, ARFIP1 / RFU, FAM179B / Fold change vs veh, FAM179B / RFU, BCL10 / Fold change vs veh, BCL10 / RFU, UHRF1BP1L / Fold change vs veh, UHRF1BP1L / RFU, BET1 / Fold change vs veh, BET1 / RFU, CNOT2 / Fold change vs veh, CNOT2 / RFU, ZNF268 / Fold change vs veh, ZNF268 / Fold change vs veh, ZNF507 / RFU, DGCR2 / Fold change vs veh, DGCR2 / RFU, WDSUB1 / Fold change vs veh, WDSUB1 / Fold change vs veh, HSP90B1 /// MIR3652 / RFU, ADSS / Fold change vs veh, ADSS / RFU, GK / Fold change vs veh, GK / RFU, ZNF148 / Fold change vs veh, ZNF148 / RFU, TAF9 / Fold change vs veh, TAF9 / RFU, SLC1A5 / Fold change vs veh, SLC1A5 / RFU, SLMO2 / Fold change vs veh, SLMO2 / RFU, ABCC4 / Fold change vs veh, ABCC4 / RFU, LOC101060439 /// RAP1B / Fold change vs veh, LOC101060439 /// RAP1B / RFU, RFX7 / Fold change vs veh, RFX7 / RFU, GTPBP10 / Fold change vs veh, GTPBP10 / RFU, CNEP1R1 / Fold change vs veh, CNEP1R1 / RFU, BIVM-ERCC5 /// ERCC5 / Fold change vs veh, BIVM-ERCC5 /// ERCC5 / RFU, ILF3 / Fold change vs veh, ILF3 / RFU 11762660_at / Fold change /veh 11762660_at / RFU VCAN (11757783_s_at) / Fold change /veh VCAN (11757783_s_at) / RFU DDX43 (11728927_at) / Fold change /veh DDX43 (11728927_at) / RFU KRT8 (11758188_x_at) / Fold change /veh KRT8 (11758188_x_at) / RFU NKD1 (11759106_at) / Fold change /veh NKD1 (11759106_at) / RFU SRD5A1 (11742802_a_at) / Fold change /veh SRD5A1 (11742802_a_at) / RFU TPSAB1 /// TPSB2 (11721975_s_at) / Fold change /veh TPSAB1 /// TPSB2 (11721975_s_at) / RFU GSTM3 (11746129_a_at) / Fold change /veh GSTM3 (11746129_a_at) / RFU IL23R (11737362_x_at) / Fold change /veh IL23R (11737362_x_at) / RFU TMEM51 (11727254_a_at) / Fold change /veh TMEM51 (11727254_a_at) / RFU PIWIL2 (11732686_x_at) / Fold change /veh PIWIL2 (11732686_x_at) / RFU ORM1 (11744905_x_at) / Fold change /veh ORM1 (11744905_x_at) / RFU CCDC152 (11743942_at) / Fold change /veh CCDC152 (11743942_at) / RFU ECM1 (11717891_a_at) / Fold change /veh ECM1 (11717891_a_at) / RFU IL23R (11748794_a_at) / Fold change /veh IL23R (11748794_a_at) / RFU TNFAIP8L3 (11732012_x_at) / Fold change /veh TNFAIP8L3 (11732012_x_at) / RFU MBOAT4 (11741988_at) / Fold change /veh MBOAT4 (11741988_at) / RFU 11764193_at / Fold change /veh 11764193_at / RFU TMEM53 (11763286_at) / Fold change /veh TMEM53 (11763286_at) / RFU MAGEB2 (11727129_at) / Fold change /veh MAGEB2 (11727129_at) / RFU TMEM200A (11744735_a_at) / Fold change /veh TMEM200A (11744735_a_at) / RFU CCDC152 (11751479_a_at) / Fold change /veh CCDC152 (11751479_a_at) / RFU FAM211A (11726209_a_at) / Fold change /veh FAM211A (11726209_a_at) / RFU RGS16 (11746705_a_at) / Fold change /veh RGS16 (11746705_a_at) / RFU VCAN (11755009_s_at) / Fold change /veh VCAN (11755009_s_at) / RFU RHOB (11743442_s_at) / Fold change /veh RHOB (11743442_s_at) / RFU RGS16 (11720943_a_at) / Fold change /veh RGS16 (11720943_a_at) / RFU RGS16 (11720944_at) / Fold change /veh RGS16 (11720944_at) / RFU, VPS4B / Fold change vs veh, VPS4B / RFU, CREB1 / Fold change vs veh, CREB1 / RFU, DNAJC13 / Fold change vs veh, DNAJC13 / RFU, GNAQ / Fold change vs veh, GNAQ / RFU, CDK5R1 / Fold change vs veh, CDK5R1 / RFU, ZRANB3 / Fold change vs veh, ZRANB3 / RFU, CUL4A / Fold change vs veh, CUL4A / RFU, CCNY / Fold change vs veh, CCNY / RFU, UFL1 / Fold change vs veh, UFL1 / RFU, COG3 / Fold change vs veh, COG3 / RFU, DIAPH2 / Fold change vs veh, DIAPH2 / RFU, SKA2 / Fold change vs veh, SKA2 / RFU, AFF3 / Fold change vs veh, AFF3 / RFU, LMF1 / Fold change vs veh, LMF1 / RFU, IPO11 / Fold change vs veh, IPO11 / RFU, DFFB / Fold change vs veh, DFFB / RFU, FOXP1 / Fold change vs veh, FOXP1 / RFU, CARD8 / Fold change vs veh, CARD8 / RFU, STRN3 / Fold change vs veh, STRN3 / RFU, ADK / Fold change vs veh, ADK / RFU, RASSF2 / Fold change vs veh, RASSF2 / RFU, WIPF1 / Fold change vs veh, WIPF1 / RFU, LARP1B / Fold change vs veh, LARP1B / RFU, RASA1 / Fold change vs veh, RASA1 / RFU, RB1 / Fold change vs veh, RB1 / RFU, PPFIA1 / Fold change vs veh, PPFIA1 / RFU, MAT2A / Fold change vs veh, MAT2A / RFU, CCT5 / Fold change vs veh, CCT5 / RFU, WDR92 / Fold change vs veh, WDR92 / RFU, CUX1 / Fold change vs veh, CUX1 / RFU, TTC7A / Fold change vs veh, TTC7A / RFU, TMEM135 / Fold change vs veh, TMEM135 / RFU, DEPTOR / Fold change vs veh, DEPTOR / RFU, CPM / Fold change vs veh, CPM / RFU, DNAJB6 / Fold change vs veh, DNAJB6 / RFU, CACNA2D3 / Fold change vs veh, CACNA2D3 / RFU, DTX4 / Fold change vs veh, DTX4 / RFU, TFCP2 / Fold change vs veh, TFCP2 / RFU, GMCL1 /// GMCL1P1 / Fold change vs veh, GMCL1 /// GMCL1P1 / RFU, AEBP2 / Fold change vs veh, AEBP2 / RFU, SNHG1 /// SNORD22 /// SNORD25 /// SNORD26 /// SNORD27 /// SNORD28 /// SNORD29 /// SNORD31 / Fold change vs veh, SNHG1 /// SNORD22 /// SNORD25 /// SNORD26 /// SNORD27 /// SNORD28 /// SNORD29 /// SNORD31 / Fold change (Aza/veh), C12orf56 (ProbeSet 11735607_a_at) / Fold change (ACY-1035/veh), C12orf56 (ProbeSet 11735607_a_at) / Fold change (Aza/veh), FGFR1OP (ProbeSet 11751329_s_at) / Fold change (ACY-1035/veh), FGFR1OP (ProbeSet 11751329_s_at) / Fold change (Aza/veh), VPS36 (ProbeSet 11739960_a_at) / Fold change (ACY-1035/veh), VPS36 (ProbeSet 11739960_a_at) / RFU SYPL1 (11715823_x_at) / Fold change /veh SYPL1 (11715823_x_at) / RFU IGFBP7 (11715501_s_at) / Fold change /veh IGFBP7 (11715501_s_at) / RFU REEP3 (11722064_at) / Fold change /veh REEP3 (11722064_at) / RFU IGLL1 (11728026_x_at) / Fold change /veh IGLL1 (11728026_x_at): dose or concentration left out as unconfirmed
# Conditions: MV-4-11 cells, 48 hours
smiles,measurement,value
Nc1ccc(-c2cccs2)cc1NC(=O)c1ccc2c(c1)cc(C1CC1)n2CCN1CCOCC1 [ACY-1035],RFU FAM174B (11720279_a_at),24.40 RFU
